The text below walks through data of patent US9796741B2 (Achillion Pharmaceuticals, Inc., priority 2014, dated 2017).

Broadly, the IC50 is the point on the concentration scale where inhibition reaches its midpoint.

The structures appear in SMILES notation. Where two headings read alike, the source gives them in different places. Where only a bound is given, the exact number is not on record here.

In the assay the target is Human factor D (Homo sapiens (Human), UniProt P00746). In words: Human Factor D Assay. The assay is classed as biochemical. As for the experimental part: Human factor D (purified from human serum, Complement Technology, Inc.) at 80 nM final concentration is incubated with test compound at various concentrations for 5 minutes at room temperature in 50 mM Tris, 1M NaCl, pH 7.5. A synthetic substrate Z-L-Lys-SBzl and DTNB (Ellman's reagent) are added to final concentrations of 100 μM each. The increase in color is recorded at OD405 nm in a microplate in kinetic mode over 30 minutes with 30 second time points in a spectrofluorimeter. IC50 values are calculated by non-linear regression from the percentage of inhibition of complement factor D activity as a function of test compound concentration.
Human factor D, sequence (P00746 26-253): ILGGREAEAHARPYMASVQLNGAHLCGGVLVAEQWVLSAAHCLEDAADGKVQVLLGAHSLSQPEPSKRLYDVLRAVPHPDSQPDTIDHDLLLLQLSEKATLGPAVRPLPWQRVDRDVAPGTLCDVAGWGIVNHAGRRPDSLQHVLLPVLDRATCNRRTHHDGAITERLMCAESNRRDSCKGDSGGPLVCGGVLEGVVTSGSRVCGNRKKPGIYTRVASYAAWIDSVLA

The mark [1] stands for this setting: human factor D 80 nM, substrate Z-L-Lys-SBzl, DTNB.

In turn, `CN1CC=C(c2ccc3c(c2)c(C(N)=O)nn3CC(=O)N2C[C@H](F)C[C@H]2C(=O)Nc2cccc(Br)n2)CC1` [Compound 22, 1-(2-((2S,4R)-2-(6-bromopyridin-2-ylcarbamoyl)-4-fluoropyrrolidin-1-yl)-2-oxoethyl)-5-(1-methyl-1,2,3,6-tetrahydropyridin-4-yl)-1H-indazole-3-carboxamide] displayed an IC50 under setting [1] of under 1000 nM.
Consider `NC(=O)c1nn(CC(=O)N2C[C@H](F)C[C@H]2C(=O)Nc2cccc(Br)n2)c2ccc(-c3ccnnc3)cc12` [Compound 25, 1-(2-((2S,4R)-2-(6-bromopyridin-2-ylcarbamoyl)-4-fluoropyrrolidin-1-yl)-2-oxoethyl)-5-(pyridazin-4-yl)-1H-indazole-3-carboxamide], for which the IC50 under setting [1] was under 1000 nM.
The same measure, in the same setting: next, `CC(=O)c1cn(CC(=O)N2C[C@H](F)C[C@H]2C(=O)Nc2cccc(-c3ccccc3Cl)c2F)c2ccc(-c3cnc(N4CCCC4)nc3)cc12` [Compound 26, (2S,4R)-1-(2-(3-acetyl-5-(2-(pyrrolidin-1-yl)pyrimidin-5-yl)-1H-indol-1-yl)acetyl)-N-(2′-chloro-2-fluorobiphenyl-3-yl)-4-fluoropyrrolidine-2-carboxamide]: under 1000 nM; `COc1ncc(-c2ccc3c(c2)c(C(C)=O)cn3CC(=O)N2C[C@H](F)C[C@H]2C(=O)Nc2cccc(-c3ccccc3Cl)c2F)cn1` [Compound 27, (2S,4R)-1-(2-(3-acetyl-5-(2-methoxypyrimidin-5-yl)-1H-indol-1-yl)acetyl)-N-(2′-chloro-2-fluoro-[1,1′-biphenyl]-3-yl)-4-fluoropyrrolidine-2-carboxamide]: under 1000 nM.
Regarding `COc1ncc(-c2ccc3c(c2)c(C(N)=O)nn3CC(=O)N2C[C@H](F)C[C@H]2C(=O)Nc2cccc(Cl)n2)cn1` [Compound 30, 1-(2-((2S,4R)-2-(6-chloropyridin-2-ylcarbamoyl)-4-fluoropyrrolidin-1-yl)-2-oxoethyl)-5-(2-methoxypyrimidin-5-yl)-1H-indazole-3-carboxamide], under setting [1], the IC50 is under 1000 nM.
On the same count and under the same terms, next, `CC(=O)c1cn(CC(=O)N2C[C@H](F)C[C@H]2C(=O)Nc2cccc(-c3ccccc3Cl)c2F)c2ccc(N3CCN(c4ncccn4)CC3)cc12` [Compound 31, (2S,4R)-1-(2-(3-acetyl-5-(4-(pyrimidin-2-yl)piperazin-1-yl)-1H-indol-1-yl)acetyl)-N-(2′-chloro-2-fluorobiphenyl-3-yl)-4-fluoropyrrolidine-2-carboxamide]: under 1000 nM.
As to `CC(=O)c1cn(CC(=O)N2C[C@H](F)C[C@H]2C(=O)Nc2cccc(-c3ccccc3Cl)c2F)c2ccc(N3CCN(c4ncc(F)cn4)CC3)cc12` [Compound 32, (2S,4R)-1-(2-(3-acetyl-5-(4-(5-fluoropyrimidin-2-yl)piperazin-1-yl)-1H-indol-1-yl)acetyl)-N-(2′-chloro-2-fluorobiphenyl-3-yl)-4-fluoropyrrolidine-2-carboxamide], the IC50 under setting [1] was under 1000 nM.
For `CC(=O)c1cn(CC(=O)N2C[C@H](F)C[C@H]2C(=O)Nc2cccc(-c3ccccc3Cl)c2F)c2ccc(N3CCN(S(C)(=O)=O)CC3)cc12` [Compound 33, (2S,4R)-1-(2-(3-acetyl-5-(4-(methylsulfonyl)piperazin-1-yl)-1H-indol-1-yl)acetyl)-N-(2′-chloro-2-fluorobiphenyl-3-yl)-4-fluoropyrrolidine-2-carboxamide], under setting [1], the IC50 is under 1000 nM.
On to `CC(=O)c1cn(CC(=O)N2C[C@H](F)C[C@H]2C(=O)Nc2ccccc2-c2nc3ccccc3s2)c2ccc(-c3ccnnc3)cc12` [Compound 34, (2S,4R)-1-(2-(3-acetyl-5-(pyridazin-4-yl)-1H-indol-1-yl)acetyl)-N-(2-(benzo[d]thiazol-2-yl)phenyl)-4-fluoropyrrolidine-2-carboxamide], for which, under setting [1], the IC50 is over 10000 nM.
`CC(=O)c1cn(CC(=O)N2C[C@H](F)C[C@H]2C(=O)NCc2ccccn2)c2ccc(-c3ccnnc3)cc12` [Compound 38, (2S,4R)-1-(2-(3-acetyl-5-(pyridazin-4-yl)-1H-indol-1-yl)acetyl)-4-fluoro-N-(pyridin-2-ylmethyl)pyrrolidine-2-carboxamide] registered an IC50 under setting [1] of under 1000 nM.
In the case of `NC(=O)c1nn(CC(=O)N2C[C@H](F)C[C@H]2C(=O)NCc2cccnc2)c2ccc(-c3ccnnc3)cc12` [Compound 39, 1-(2-((2S,4R)-4-fluoro-2-(pyridin-3-ylmethylcarbamoyl)pyrrolidin-1-yl)-2-oxoethyl)-5-(pyridazin-4-yl)-1H-indazole-3-carboxamide], the IC50 fell in the range of 1000 to 10000 nM.
Regarding `CC(=O)c1cn(CC(=O)N2C[C@H](F)C[C@H]2C(=O)Nc2noc3cc(C(F)(F)F)ccc23)c2ccc(-c3ccnnc3)cc12` [Compound 42, (2S,4R)-1-(2-(3-acetyl-5-(pyridazin-4-yl)-1H-indol-1-yl)acetyl)-4-fluoro-N-(6-(trifluoromethyl)benzo [d]isoxazol-3-yl)pyrrolidine-2-carboxamide], under setting [1], the IC50 was over 10000 nM.
Take `CC(=O)c1cn(CC(=O)N2C[C@H](F)C[C@H]2C(=O)NCc2cccc(Cl)c2)c2ccc(-c3ccnnc3)cc12` [Compound 44, (2S,4R)-1-(2-(3-acetyl-5-(pyridazin-4-yl)-1H-indol-1-yl)acetyl)-N-(3-chlorobenzyl)-4-fluoropyrrolidine-2-carboxamide]: the IC50 under setting [1] is under 1000 nM.
`NC(=O)c1nn(CC(=O)N2C[C@H](F)C[C@H]2C(=O)NCc2cccc(Cl)c2)c2ccc(-c3ccnnc3)cc12` [Compound 45, 1-(2-((2S,4R)-2-(3-chlorobenzylcarbamoyl)-4-fluoropyrrolidin-1-yl)-2-oxoethyl)-5-(pyridazin-4-yl)-1H-indazole-3-carboxamide] displayed an IC50 under setting [1] of under 1000 nM.
In turn, `CC(=O)c1cn(CC(=O)N2C[C@H](F)C[C@H]2C(=O)NCc2cc(F)cc(Cl)c2)c2ccc(-c3ccnnc3)cc12` [Compound 46, (2S,4R)-1-(2-(3-acetyl-5-(pyridazin-4-yl)-1H-indol-1-yl)acetyl)-N-(3-chloro-5-fluorobenzyl)-4-fluoropyrrolidine-2-carboxamide] showed an IC50 under setting [1] of under 1000 nM.
The same measure, in the same setting: in the case of `NC(=O)c1nn(CC(=O)N2C[C@H](F)C[C@H]2C(=O)Nc2cccnc2)c2ccc(-c3ccnnc3)cc12` [Compound 47, 1-(2-((2S,4R)-4-fluoro-2-(pyridin-3-ylcarbamoyl)pyrrolidin-1-yl)-2-oxoethyl)-5-(pyridazin-4-yl)-1H-indazole-3-carboxamide] it was over 10000 nM; in that of `CCN1Cc2ccc(NC(=O)[C@@H]3C[C@@H](F)CN3C(=O)Cn3nc(C(N)=O)c4cc(-c5ccnnc5)ccc43)cc2C1=O` [Compound 48, 1-(2-((2S,4R)-2-(2-ethyl-3-oxoisoindolin-5-ylcarbamoyl)-4-fluoropyrrolidin-1-yl)-2-oxoethyl)-5-(pyridazin-4-yl)-1H-indazole-3-carboxamide], over 10000 nM.
Consider `CCN1Cc2ccc(NC(=O)[C@@H]3C[C@@H](F)CN3C(=O)Cn3cc(C(C)=O)c4cc(-c5ccnnc5)ccc43)cc2C1=O` [Compound 49, (2S,4R)-1-(2-(3-acetyl-5-(pyridazin-4-yl)-1H-indol-1-yl)acetyl)-N-(2-ethyl-3-oxoisoindolin-5-yl)-4-fluoropyrrolidine-2-carboxamide], for which the IC50 lay within 1000 to 10000 nM.
With `NC(=O)c1nn(CC(=O)N2C[C@H](F)C[C@H]2C(=O)Nc2ccc3ncsc3c2)c2ccc(-c3ccnnc3)cc12` [Compound 50, 1-(2-((2S,4R)-2-(benzo[d]thiazol-6-ylcarbamoyl)-4-fluoropyrrolidin-1-yl)-2-oxoethyl)-5-(pyridazin-4-yl)-1H-indazole-3-carboxamide], under setting [1], the IC50 is over 10000 nM.
Same read-out and setting: next, `NC(=O)c1nn(CC(=O)N2C[C@H](F)C[C@H]2C(=O)N[C@@H]2CCC[C@@H]2OCc2ccccc2)c2ccc(-c3ccnnc3)cc12` [Compound 51, 1-(2-((2S,4R)-2-((1R,2S)-2-(benzyloxy)cyclopentylcarbamoyl)-4-fluoropyrrolidin-1-yl)-2-oxoethyl)-5-(pyridazin-4-yl)-1H-indazole-3-carboxamide]: over 10000 nM; `NC(=O)c1nn(CC(=O)N2C[C@H](F)C[C@H]2C(=O)NCc2nc3ccccc3s2)c2ccc(-c3ccnnc3)cc12` [Compound 52, 1-(2-((2S,4R)-2-(benzo[d]thiazol-2-ylmethylcarbamoyl)-4-fluoropyrrolidin-1-yl)-2-oxoethyl)-5-(pyridazin-4-yl)-1H-indazole-3-carboxamide]: over 10000 nM; `CC(=O)c1cn(CC(=O)N2C[C@H](F)C[C@H]2C(=O)Nc2nc(-c3ccc4c(c3)CCCC4)cs2)c2ccc(-c3ccnnc3)cc12` [Compound 54, (2S,4R)-1-(2-(3-acetyl-5-(pyridazin-4-yl)-1H-indol-1-yl)acetyl)-4-fluoro-N-(4-(5,6,7,8-tetrahydronaphthalen-2-yl)thiazol-2-yl)pyrrolidine-2-carboxamide]: over 10000 nM.
`NC(=O)c1nn(CC(=O)N2C[C@H](F)C[C@H]2C(=O)Nc2nc(-c3ccc4c(c3)CCCC4)cs2)c2ccc(-c3ccnnc3)cc12` [Compound 55, 1-(2-((2S,4R)-4-fluoro-2-(4-(5,6,7,8-tetrahydronaphthalen-2-yl)thiazol-2-ylcarbamoyl)pyrrolidin-1-yl)-2-oxoethyl)-5-(pyridazin-4-yl)-1H-indazole-3-carboxamide] registered an IC50 under setting [1] of over 10000 nM.
Still for that read-out and setting: in the case of `CC(=O)c1cn(CC(=O)N2C[C@H](F)C[C@H]2C(=O)Nc2nc(-c3c(C)nc4sccn34)cs2)c2ccc(-c3ccnnc3)cc12` [Compound 57, (2S,4R)-1-(2-(3-acetyl-5-(pyridazin-4-yl)-1H-indol-1-yl)acetyl)-4-fluoro-N-(4-(6-methylimidazo[2,1-b]thiazol-5-yl)thiazol-2-yl)pyrrolidine-2-carboxamide] it was over 10000 nM.
As for `CC(=O)c1cn(CC(=O)N2C[C@H](F)C[C@H]2C(=O)NCc2cccnc2)c2ccc(-c3ccnnc3)cc12` [Compound 59, (2S,4R)-1-(2-(3-acetyl-5-(pyridazin-4-yl)-1H-indol-1-yl)acetyl)-4-fluoro-N-(pyridin-3-ylmethyl)pyrrolidine-2-carboxamide], the IC50 lay within 1000 to 10000 nM.
